One test has as its system S. aureus ATCC700699. Nature of the test: MIC by microdilution, S. aureus ATCC700699. The class given is cell-based, Staphylococcus aureus. Set-up: unit not given here. Particulars: S. aureus ATCC700699 (MecA positive, glycopeptide resistant), in duplicate. In short, it runs like this: (§1)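 Broth microdilution per CLSI (M07-A10) in Mueller-Hinton broth, run in duplicate; MIC recorded as minimal inhibitory concentration. Panel spans wild-type to multidrug-resistant strains, e.g. S. aureus ATCC700699 (MecA+, glycopeptide resistant), S. epidermidis ATCC35984 (MecA+), E. coli ATCC25922 (wild-type).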
On the technique in general: In broth dilution the organism is exposed to a series of concentrations in liquid medium.

The subject of the next test is E. faecalis UCN41. The test is described as follows: MIC by microdilution, E. faecalis UCN41. Particulars: E. faecalis UCN41 (VanA positive, glycopeptide resistant), in duplicate. The class given is cell-based, Enterococcus faecalis. Details: unit not given here. An outline of the steps:
(§2)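 Broth microdilution per CLSI document M07-A10, Mueller-Hinton medium, each MIC run in duplicate. Strains include E. coli ATCC25922 (wild-type), S. epidermidis ATCC35984 (MecA positive) and S. aureus ATCC700699 (MecA positive, glycopeptide resistant), within a mixed panel of susceptible and resistant Gram-positive/Gram-negative bacteria.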

For test [1], the system named is S. epidermidis ST20150446. Nature of the test: MIC by microdilution, S. epidermidis ST20150446. It counts as cell-based, Staphylococcus epidermidis. Particulars: S. epidermidis ST20150446 (MecA positive, glycopeptide resistant), in duplicate. An outline of the steps: as §2
The test system of a further test is E. coli ATCC25922. Nature of the test: MIC by microdilution, E. coli ATCC25922. It counts as cell-based, Escherichia coli. The note with it: E. coli ATCC25922 (wild-type), in duplicate. An outline of the steps:
as §1

Test [2] deals with Clostridium difficile ATCC700057. Nature of the test: MIC by microdilution, Clostridium difficile. It counts as cell-based. Particulars: strain ATCC70057 [sic] (Tables 1-2) / ATCC700057 (Tables 3-10), in duplicate.
A further test has as its system E. faecium ATCC19434T. The test is described as follows: MIC by microdilution, E. faecium ATCC19434T. It counts as cell-based, Enterococcus faecium. Details: unit not given here. The note with it: E. faecium ATCC19434T (wild-type), in duplicate. An outline of the steps: as §2
Another test relates to S. epidermidis ATCC35984. The test is described as follows: MIC by microdilution, S. epidermidis ATCC35984. It counts as cell-based, Staphylococcus epidermidis. Particulars: S. epidermidis ATCC35984 (MecA positive), in duplicate. An outline of the steps: as §1
The test system of the next test is E. faecium AUS0004. The test is described as follows: MIC by microdilution, E. faecium AUS0004. It counts as cell-based, Enterococcus faecium. The note with it: E. faecium AUS0004 (VanB positive, glycopeptide resistant), in duplicate. An outline of the steps:
as §2

A further test has as its system S. aureus ST20131365. The test is described as follows: MIC by microdilution, S. aureus ST20131365. The class given is cell-based, Staphylococcus aureus. The note with it: S. aureus ST20131365 (MecA positive, glycopeptide resistant), in duplicate. An outline of the steps: as §1
Another test relates to E. faecalis V583. Nature of the test: MIC by microdilution, E. faecalis V583. The note with it: E. faecalis V583 (VanB positive, glycopeptide resistant), in duplicate. The class given is cell-based, Enterococcus faecalis. An outline of the steps:
as §1

Another test deals with S. aureus ATCC25923. Nature of the test: MIC by microdilution, S. aureus ATCC25923. Particulars: S. aureus ATCC25923 (MecA negative, wild-type), Mueller-Hinton broth, in duplicate. The class given is cell-based, Staphylococcus aureus. An outline of the steps:
as §2

For a further test, the system named is S. aureus ATCC29213. The test is described as follows: MIC by microdilution, S. aureus ATCC29213. The class given is cell-based, Staphylococcus aureus. The note with it: S. aureus ATCC29213 (MecA negative, wild-type), Mueller-Hinton broth, in duplicate. In short, it runs like this: as §2
Test [3] relates to S. epidermidis ST20140436. The test is described as follows: MIC by microdilution, S. epidermidis ST20140436. It counts as cell-based, Staphylococcus epidermidis. Particulars: S. epidermidis ST20140436 (MecA positive, glycopeptide resistant), in duplicate. In short, it runs like this:
as §2

In a further test the test system is E. faecalis JH2-2. Nature of the test: MIC by microdilution, E. faecalis JH2-2. Details: unit not given here. The note with it: E. faecalis JH2-2 (wild-type), in duplicate. The class given is cell-based, Enterococcus faecalis. In short, it runs like this: as §2
The subject of another test is E. faecium BM4147. Nature of the test: MIC by microdilution, E. faecium BM4147. It counts as cell-based, Enterococcus faecium. Particulars: E. faecium BM4147 (VanA positive, glycopeptide resistant), in duplicate. Details: unit not given here. An outline of the steps:
as §2

Test [4] has as its system panel of Gram-positive and Gram-negative strains. The test is described as follows: Antibacterial profile on the selected panel of strains. The class given is cell-based. The note with it: summary of Tables 1-12. An outline of the steps:
as §1

A further test deals with S. epidermidis ATCC14990. The test is described as follows: MIC by microdilution, S. epidermidis ATCC14990. The class given is cell-based, Staphylococcus epidermidis. The note with it: S. epidermidis ATCC14990 (MecA negative, wild-type), in duplicate. An outline of the steps: as §1

SMILES strings stand for the structures. “And” between values parts separate entries of the source, which are not always exact repeats. Equal values may be shown once.

On to `CC[P+](CC)(CC)[Au-][c]1nn[nH]c1COC(=O)NC(C(=O)OC(C)(C)C)c1ccccc1` (centres unmarked) [TMB15], for which the “Minimal Inhibitory Concentration (MIC)” value is 0.5 with S. aureus ATCC700699; 2 in the test on E. faecalis UCN41; 0.125 and 0.25 in test [1]; greater than 8 in the test with E. coli ATCC25922; 0.125 and 0.25 in test [2]; 2 in the test with E. faecium ATCC19434T. Also, the “Minimal Inhibitory Concentration (MIC)” value is no more than 0.06 with S. epidermidis ATCC35984; 2 in the test on E. faecium AUS0004; 0.25 and 0.5 with S. aureus ST20131365; 2 and 4 with E. faecalis V583; 0.25 and 0.5 in the test with S. aureus ATCC25923; 0.5 in the test with S. aureus ATCC29213. In addition, the “Minimal Inhibitory Concentration (MIC)” value is recorded as 0.125 in test [3], 2 in the test on E. faecalis JH2-2, 4 in the test with E. faecium BM4147 and no more than 0.06 in the test with S. epidermidis ATCC14990. For the same molecule, the “antimicrobial / antibacterial activity (in words)” value in [4] was “have antimicrobial activity”.

With `CC[P+](CC)(CC)[Au-][c]1nn[nH]c1COC(=O)NCC(=O)O` [TMB18], the “Minimal Inhibitory Concentration (MIC)” value was 0.125 in the test with S. aureus ATCC700699; 0.25 and 0.5 in the test with E. faecalis UCN41; no more than 0.06 in [1]; greater than 8 in the test with E. coli ATCC25922; no more than 0.06 in [2]; 0.25 with E. faecium ATCC19434T. In addition, the “Minimal Inhibitory Concentration (MIC)” value in the test with S. epidermidis ATCC35984 was no more than 0.06; in the test with E. faecium AUS0004, 0.25; in the test on S. aureus ST20131365 it was 0.125; in the test with E. faecalis V583, 0.25 and 0.5; with S. aureus ATCC25923, 0.125; with S. aureus ATCC29213, 0.125. Also, the “Minimal Inhibitory Concentration (MIC)” value in test [3] is listed as no more than 0.06; in the test with E. faecalis JH2-2 it was 0.25; in the test on E. faecium BM4147, 0.5; in the test with S. epidermidis ATCC14990 it was no more than 0.06. Further, the “antimicrobial / antibacterial activity (in words)” value in test [4] is reported as “have antimicrobial activity”.

`CC[P+](CC)(CC)[Au-][c]1nn[nH]c1COC(=O)NC(C(=O)O)c1ccc(O)cc1` (centres unmarked) [TMB26]: the “Minimal Inhibitory Concentration (MIC)” value is reported as 0.25 in the test with S. aureus ATCC700699; 0.25 with E. faecalis UCN41; no more than 0.06 in [1]; greater than 8 with E. coli ATCC25922; 0.125 in test [2]; 0.25 with E. faecium ATCC19434T. For the same molecule, the “Minimal Inhibitory Concentration (MIC)” value is reported as no more than 0.06 in the test with S. epidermidis ATCC35984; 0.5 with E. faecium AUS0004; 0.125 with S. aureus ST20131365; 0.5 in the test with E. faecalis V583; 0.125 with S. aureus ATCC25923; 0.125 in the test with S. aureus ATCC29213. For the same molecule, the “Minimal Inhibitory Concentration (MIC)” value is no more than 0.06 in [3], 0.25 in the test with E. faecalis JH2-2, 0.5 with E. faecium BM4147 and no more than 0.06 in the test with S. epidermidis ATCC14990. Also, the “antimicrobial / antibacterial activity (in words)” value in test [4] is given as “have antimicrobial activity”.

Regarding `CC[P+](CC)(CC)[Au-][c]1nn[nH]c1COC(=O)N[C@H](Cc1ccccc1)C(=O)O` [TMB27], the “Minimal Inhibitory Concentration (MIC)” value with S. aureus ATCC700699 was 0.25; with E. faecalis UCN41, 0.5 and 1; in test [1] it was 0.125; in the test with E. coli ATCC25922, greater than 8; in test [2] it was 0.125; in the test with E. faecium ATCC19434T, 1. In addition, the “Minimal Inhibitory Concentration (MIC)” value was no more than 0.06 in the test with S. epidermidis ATCC35984; 2 with E. faecium AUS0004; 0.5 in the test on S. aureus ST20131365; 1 in the test on E. faecalis V583; 0.25 in the test with S. aureus ATCC25923; 0.25 and 0.5 in the test with S. aureus ATCC29213. Besides, the “Minimal Inhibitory Concentration (MIC)” value in [3] was 0.125; with E. faecalis JH2-2 it was 0.5; in the test on E. faecium BM4147, 1; in the test with S. epidermidis ATCC14990, no more than 0.06. The “antimicrobial / antibacterial activity (in words)” value in test [4] is “have antimicrobial activity”.

Regarding `CC[P+](CC)(CC)[Au-][c]1nn[nH]c1COC(=O)N1CCC[C@@H]1C(=O)O` [TMB28], the “Minimal Inhibitory Concentration (MIC)” value is 0.125 in the test on S. aureus ATCC700699; 0.25 with E. faecalis UCN41; 0.125 in test [1]; greater than 8 in the test with E. coli ATCC25922; 0.125 and 0.25 in test [2]; 0.25 in the test with E. faecium ATCC19434T. Besides, the “Minimal Inhibitory Concentration (MIC)” value was no more than 0.06 in the test on S. epidermidis ATCC35984; 0.5 in the test with E. faecium AUS0004; 0.25 and 0.5 in the test on S. aureus ST20131365; 0.25 in the test with E. faecalis V583; 0.125 in the test on S. aureus ATCC25923; 0.25 in the test on S. aureus ATCC29213. In addition, the “Minimal Inhibitory Concentration (MIC)” value in test [3] is 0.125; in the test with E. faecalis JH2-2, 0.25; in the test on E. faecium BM4147 it was 0.5; with S. epidermidis ATCC14990 it was no more than 0.06. Besides, the “antimicrobial / antibacterial activity (in words)” value in [4] is on record as “have antimicrobial activity”.

Consider `CC[P+](CC)(CC)[Au-][c]1nn[nH]c1COC(=O)N[C@H](Cc1c[nH]c2ccccc12)C(=O)O` [TMB30], for which the “Minimal Inhibitory Concentration (MIC)” value with S. aureus ATCC700699 is 0.25; in the test on E. faecalis UCN41 it was 0.5; in test [1], 0.125; in the test with E. coli ATCC25922, greater than 8; in test [2], 0.125; in the test on E. faecium ATCC19434T it was 0.5. For the same molecule, the “Minimal Inhibitory Concentration (MIC)” value was no more than 0.06 with S. epidermidis ATCC35984; 1 in the test with E. faecium AUS0004; 0.25 in the test on S. aureus ST20131365; 0.5 with E. faecalis V583; 0.25 in the test on S. aureus ATCC25923; 0.25 in the test with S. aureus ATCC29213. Moreover, the “Minimal Inhibitory Concentration (MIC)” value is on record as 0.125 in test [3], 0.5 in the test on E. faecalis JH2-2, 1 with E. faecium BM4147 and no more than 0.06 with S. epidermidis ATCC14990. Besides, the “antimicrobial / antibacterial activity (in words)” value in [4] is “have antimicrobial activity”.

For the molecule `CC[P+](CC)(CC)[Au-][c]1nn[nH]c1CN1CCN(C)CC1` [TMB33], the “Minimal Inhibitory Concentration (MIC)” value in the test on S. aureus ATCC700699 is recorded as 0.25; with E. faecalis UCN41, 1; in [1], 0.25; in the test on E. coli ATCC25922 it was greater than 8; in test [2] it was no more than 0.06; in the test on E. faecium ATCC19434T, 0.25. In addition, the “Minimal Inhibitory Concentration (MIC)” value in the test on S. epidermidis ATCC35984 was no more than 0.06; in the test with E. faecium AUS0004, 0.5; with S. aureus ST20131365, 0.25; in the test with E. faecalis V583, 0.5; in the test on S. aureus ATCC25923, 0.125; in the test on S. aureus ATCC29213, 0.25. Also, the “Minimal Inhibitory Concentration (MIC)” value in test [3] is 0.25; in the test with E. faecalis JH2-2, 0.25; with E. faecium BM4147, 0.5; with S. epidermidis ATCC14990, no more than 0.06. In addition, in test [4], the “antimicrobial / antibacterial activity (in words)” value is reported as “have antimicrobial activity”.
